Read-outs that look alike come from different tables or passages of the source.
Target: T1, glutathione S-transferase (GST)-fused full-length human Syk protein (Homo sapiens, UniProt P43405)
T1 construct: (GST)-fused full-length human Syk protein; GST (glutathione S-transferase); purchased Carna Biosciences
Experiment: Syk enzyme assay
Assay type: biochemical
Outline: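 GST-tagged full-length human Syk (baculovirus) preincubated with compound 15 min at room temperature (pH 7.0, 10 mM MgCl2), then reacted 40 min with 0.4 μM biotinylated peptide substrate and 27 μM ATP (final). Phosphorylation read by HTRF (615/665 nm) after EDTA stop; IC50 reported.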

[1] = read-out: Syk-inhibitory activity (IC50)
[2] = Syk enzyme assay, Test Example 1, read-out: IC50 of Syk-inhibitory activity

Row | SMILES | IC50 [1] [nM] | IC50 [2] [nM]
1 | NC(=O)c1cc(F)c(NCc2ncc[nH]2)nc1Nc1ccc2ncccc2c1 [Example 12-28, 5-fluoro-6-(((1H-imidazol-2-yl)methyl)amino)-2-(quinolin-6-ylamino)nicotinamide] | ≤ 1000 | –
2 | NC(=O)c1cc(F)c(NCc2ncc[nH]2)nc1Nc1ccc2ncccc2c1 [Example 012-028] | – | 100 to 1000
3 | NC(=O)c1cc(F)c(N[C@H](Cc2ccccc2)c2ncc[nH]2)nc1Nc1ccc2ncccc2c1 [Example 012-029] | – | 100 to 1000
4 | CC(C)C[C@@H](Nc1nc(Nc2ccc3ncccc3c2)c(C(N)=O)cc1F)c1ncc[nH]1 [Example 012-030] | – | 100 to 1000
5 | CC(C)[C@@H](Nc1nc(Nc2ccc3ncccc3c2)c(C(N)=O)cc1F)C(N)=O [Example 012-032] | – | 50 to 100
6 | NC(=O)c1cc(F)c(NC(Cc2ccc(F)cc2)C(N)=O)nc1Nc1ccc2ncccc2c1 (stereo not shown) [Example 012-033] | – | 10 to 50
7 | COc1ccc(C[C@@H](Nc2nc(Nc3ccc4ncccc4c3)c(C(N)=O)cc2F)C(N)=O)cc1 [Example 012-034] | – | 100 to 1000
8 | NC(=O)c1cc(F)c(N[C@H](Cc2cnc[nH]2)C(N)=O)nc1Nc1ccc2ncccc2c1 [Example 012-035, (R)-6-((1-amino-3-(1H-imidazol-5-yl)-1-oxopropan-2-yl)amino)-5-fluoro-2-((quinolin-6-yl)amino)nicotinamide] | – | 100 to 1000
9 | CC(C)(C)[C@@H](Nc1nc(Nc2ccc3ncccc3c2)c(C(N)=O)cc1F)C(N)=O [Example 012-037] | – | 50 to 100
10 | CCC[C@@H](Nc1nc(Nc2ccc3ncccc3c2)c(C(N)=O)cc1F)C(N)=O [Example 012-038] | – | 10 to 50
11 | NC(=O)c1cc(F)c(NCC(N)Cc2ccccc2)nc1Nc1ccc2ncccc2c1 (stereo not shown) [Example 014-003] | – | 50 to 100
12 | CCC(N)CNc1nc(Nc2ccc3ncccc3c2)c(C(N)=O)cc1F (stereo not shown) [Example 014-004] | – | 10 to 50
13 | CC(C)(N)CNc1nc(Nc2ccc3ncccc3c2)c(C(N)=O)cc1F [Example 014-011, 6-((2-amino-2-methylpropyl)amino)-5-fluoro-2-((quinolin-6-yl)amino)nicotinamide] | – | 10 to 50
14 | CC(C)(CN)Nc1nc(Nc2ccc3ncccc3c2)c(C(N)=O)cc1F [Example 014-012, 6-((1-amino-2-methylpropan-2-yl)amino)-5-fluoro-2-((quinolin-6-yl)amino)nicotinamide] | – | 50 to 100
15 | CC(C)(C)[C@H](N)CNc1nc(Nc2ccc3ncccc3c2)c(C(N)=O)cc1F [Example 014-015, (S)-6-((2-amino-3,3-dimethylbutyl)amino)-5-fluoro-2-((quinolin-6-yl)amino)nicotinamide] | – | 50 to 100
16 | NC(=O)c1cc(F)c(NC[C@@H](N)c2cccnc2)nc1Nc1ccc2ncccc2c1 [Example 014-018, (S)-6-((2-amino-2-(pyridin-3-yl)ethyl)amino)-5-fluoro-2-((quinolin-6-yl)amino)nicotinamide] | – | 10 to 50
17 | NC(=O)c1cc(F)c(NCC2CCCCN2)nc1Nc1ccc2ncccc2c1 (stereo not shown) [Example 014-021] | – | 100 to 1000
18 | CCNc1nc(Nc2cc(OC)cc(OC)c2)c(C(N)=O)cc1F [Example 15, 2-(3,5-dimethoxyphenylamino)-6-(ethylamino)-5-fluoronicotinamide] | ≤ 1000 | –
19 | CCNc1nc(Nc2cc(OC)cc(OC)c2)c(C(N)=O)cc1F [Example 016-001] | – | 100 to 1000
20 | COc1cc(Nc2nc(NCC(N)=O)c(F)cc2C(N)=O)cc(OC)c1 [Example 016-005] | – | 100 to 1000
21 | COc1cc(Nc2nc(NCC3CC3)c(F)cc2C(N)=O)cc(OC)c1 [Example 16-8, 6-((cyclopropylmethyl)amino)-2-((3,5-dimethoxyphenyl)amino)-5-fluoronicotinamide] | ≤ 1000 | –

Row | SMILES | IC50 [1] [nM] | IC50 [2] [nM]
22 | COc1cc(Nc2nc(NCC3CC3)c(F)cc2C(N)=O)cc(OC)c1 [Example 016-008] | – | 100 to 1000
23 | COc1cc(Nc2nc(NC(C(N)=O)c3ccccc3)c(F)cc2C(N)=O)cc(OC)c1 (stereo not shown) [Example 16-9, 6-((2-amino-2-oxo-1-phenylethyl)amino)-2-((3,5-dimethoxyphenyl)amino)-5-fluoronicotinamide] | ≤ 1000 | –
24 | COc1cc(Nc2nc(NC(C(N)=O)c3ccccc3)c(F)cc2C(N)=O)cc(OC)c1 (stereo not shown) [Example 016-009] | – | 10 to 50
25 | COc1cc(Nc2nc(NCCc3cnc[nH]3)c(F)cc2C(N)=O)cc(OC)c1 [Example 016-011] | – | 100 to 1000
26 | C#CCNc1nc(Nc2cc(OC)cc(OC)c2)c(C(N)=O)cc1F [Example 016-012] | – | 100 to 1000
27 | COc1cc(Nc2nc(NCc3ccccc3N)c(F)cc2C(N)=O)cc(OC)c1 [Example 016-014] | – | 100 to 1000
28 | COc1cc(Nc2nc(NCc3ccc(N)cc3)c(F)cc2C(N)=O)cc(OC)c1 [Example 016-015] | – | 100 to 1000
29 | COc1cc(Nc2nc(NCc3cc4ccccc4[nH]3)c(F)cc2C(N)=O)cc(OC)c1 [Example 016-016] | – | 100 to 1000
30 | COc1cc(Nc2nc(N[C@@H](C(N)=O)c3ccccc3)c(F)cc2C(N)=O)cc(OC)c1 [Example 16-17, 6-(((1R)-2-amino-2-oxo-1-phenylethyl)amino)-2-((3,5-dimethoxyphenyl)amino)-5-fluoronicotinamide] | ≤ 1000 | –
31 | COc1cc(Nc2nc(N[C@@H](C(N)=O)c3ccccc3)c(F)cc2C(N)=O)cc(OC)c1 [Example 016-017] | – | 10 to 50
32 | COc1cc(Nc2nc(N[C@H](C(N)=O)c3ccccc3)c(F)cc2C(N)=O)cc(OC)c1 [Example 16-18, 6-(((1S)-2-amino-2-oxo-1-phenylethyl)amino)-2-((3,5-dimethoxyphenyl)amino)-5-fluoronicotinamide] | ≤ 1000 | –
33 | COc1cc(Nc2nc(N[C@H](C(N)=O)c3ccccc3)c(F)cc2C(N)=O)cc(OC)c1 [Example 016-018] | – | 100 to 1000
34 | COc1cc(Nc2nc(Nc3ccncc3)c(F)cc2C(N)=O)cc(OC)c1 [Example 016-020] | – | 100 to 1000
35 | COc1cc(Nc2nc(N3CCNC(=O)C3)c(F)cc2C(N)=O)cc(OC)c1 [Example 016-024] | – | 100 to 1000
36 | COc1cc(Nc2nc(N3CC[C@@H](N)C3)c(F)cc2C(N)=O)cc(OC)c1 [Example 17, 6-((3R)-3-aminopyrrolidin-1-yl)-2-(3,5-dimethoxyphenylamino)-5-fluoronicotinamide] | ≤ 1000 | –
37 | COc1cc(Nc2nc(N3CCC(N)C3)c(F)cc2C(N)=O)cc(OC)c1 (stereo not shown) [Example 018-001] | – | 100 to 1000
38 | COc1cc(Nc2nc(NCCc3c[nH]c4ccccc34)c(F)cc2C(N)=O)cc(OC)c1 [Example 19, 2-(3,5-dimethoxyphenylamino)-5-fluoro-6-(2-(1H-indole-3-yl)ethylamino)nicotinamide] | ≤ 1000 | –
39 | COc1cc(Nc2nc(NCCc3c[nH]c4ccccc34)c(F)cc2C(N)=O)cc(OC)c1 [Example 020-002] | – | 100 to 1000
40 | CNc1nc(Nc2cc(OC)cc(OC)c2)c(C(N)=O)cc1F [Example 022-008] | – | 100 to 1000
41 | CNc1nc(Nc2cc(OC)cc(OC)c2)c(C(N)=O)cc1F [Example 23, 2-(3,5-dimethoxyphenylamino)-5-fluoro-6-(methylamino)nicotinamide] | ≤ 1000 | –
42 | NC(=O)c1cc(F)c(Nc2cccnc2)nc1Nc1cnc2ccccc2c1 [Example 24, 5-fluoro-6-(pyridin-3-ylamino)-2-(quinolin-3-ylamino)nicotinamide] | ≤ 1000 | –

Row | SMILES | IC50 [1] [nM] | IC50 [2] [nM]
43 | CS(=O)(=O)Nc1cncc(Nc2nc(NC3CCCCC3N)c(F)cc2C(N)=O)c1 (stereo not shown) [Example 027-006] | – | 100 to 1000
44 | NC(=O)c1cc(F)c(NC2CCCCC2N)nc1Nc1cncc(NC(=O)c2ccccc2Cl)c1 (stereo not shown) [Example 027-007] | – | 10 to 50
45 | NC(=O)c1cc(F)c(NC2CCCCC2N)nc1Nc1cncc(NC(=O)c2cccc(Cl)c2)c1 (stereo not shown) [Example 027-008] | – | 10 to 50
46 | NC(=O)c1cc(F)c(NC2CCCCC2N)nc1Nc1cncc(NC(=O)c2ccc(Cl)cc2)c1 (stereo not shown) [Example 027-009] | – | 10 to 50
47 | NC(=O)c1cc(F)c(NC2CCCCC2N)nc1Nc1cncc(NC(=O)c2ccc(OC(F)(F)F)cc2)c1 (stereo not shown) [Example 027-016] | – | 100 to 1000
48 | NC(=O)c1cc(F)c(NC2CCCCC2N)nc1Nc1cncc(NC(=O)c2ccc(Cl)cc2Cl)c1 (stereo not shown) [Example 027-018] | – | 50 to 100
49 | COc1ccc(C(=O)Nc2cncc(Nc3nc(NC4CCCCC4N)c(F)cc3C(N)=O)c2)c(OC)c1 (stereo not shown) [Example 027-019] | – | 10 to 50
50 | NC(=O)c1cc(F)c(NC2CCCCC2N)nc1Nc1cncc(NC(=O)c2cccnc2)c1 (stereo not shown) [Example 027-021] | – | 10 to 50
51 | NC(=O)c1cc(F)c(NC2CCCCC2N)nc1Nc1cncc(NC(=O)c2ccncc2)c1 (stereo not shown) [Example 027-022] | – | 10 to 50
52 | Cc1ccccc1C(=O)Nc1cncc(Nc2nc(NC3CCCCC3N)c(F)cc2C(N)=O)c1 (stereo not shown) [Example 027-023] | – | 50 to 100
53 | COc1ccccc1C(=O)Nc1cncc(Nc2nc(NC3CCCCC3N)c(F)cc2C(N)=O)c1 (stereo not shown) [Example 027-024] | – | 10 to 50
54 | CCOc1ccccc1C(=O)Nc1cncc(Nc2nc(NC3CCCCC3N)c(F)cc2C(N)=O)c1 (stereo not shown) [Example 027-025] | – | 10 to 50
55 | NC(=O)c1cc(F)c(NC2CCCCC2N)nc1Nc1cncc(NC(=O)c2ccccc2OC(F)(F)F)c1 (stereo not shown) [Example 027-026] | – | 50 to 100
56 | NC(=O)c1cc(F)c(NC2CCCCC2N)nc1Nc1cncc(NC(=O)c2cccc(F)c2)c1 (stereo not shown) [Example 027-027] | – | 10 to 50
57 | COc1cccc(C(=O)Nc2cncc(Nc3nc(NC4CCCCC4N)c(F)cc3C(N)=O)c2)c1 (stereo not shown) [Example 027-028] | – | 10 to 50
58 | NC(=O)c1cc(F)c(NC2CCCCC2N)nc1Nc1cncc(NC(=O)c2ccc(F)cc2F)c1 (stereo not shown) [Example 027-029] | – | 10 to 50
59 | NC(=O)c1cc(F)c(NC2CCCCC2N)nc1Nc1cncc(NC(=O)c2cccs2)c1 (stereo not shown) [Example 027-031] | – | < 10
60 | NC(=O)c1cc(F)c(NC2CCCCC2N)nc1Nc1cncc(NC(=O)c2ccsc2)c1 (stereo not shown) [Example 027-032] | – | < 10
61 | NC(=O)c1cc(F)c(NC2CCCCC2N)nc1Nc1cncc(NC(=O)c2ccc3c(c2)OCO3)c1 (stereo not shown) [Example 027-034] | – | 10 to 50

Reference: patent publication US8895585B2, “Nicotinamide derivative or salt thereof” (FUJIFILM Corporation, priority 2010, dated 2014)
